According to patent publication US20100062065A1, “PHARMACEUTICAL COMPOSITION CONTAINING NAPHTHOQUINONE-BASED COMPOUND FOR INTESTINE DELIVERY SYSTEM” (MAZENCE INC., priority 2006, published 2010):
Several values for one entry are separate records, joined by “and”; a condition that tells them apart may be missing. Equal entries are not always repeated.

How the values were obtained:
[1] = Determination of partition coefficients (octanol / phosphate buffer pH 7.4); format: physicochemical; settings: for Partition Coefficient: octanol/phosphate buffer pH 7.4, samples 1-3
Description: Octanol and phosphate buffer (pH 7.4) were saturated with a counter-solvent for 24 hours or more. A given amount of a naphthoquinone-based compound (Compound 1 of Table 1 below) was dissolved in the thus-saturated octanol, mixed with triple-distilled water and stirred using a magnetic stirrer at 200 rpm for 13 hours or more. Samples were taken, filtered through a 0.45 μm RC Membrane filter and diluted with methanol. The diluted sample materials were analyzed by HPLC. A partition coefficient versus an amount of Compound 1 was determined.

[2] = Intestinal absorption, single-pass intestinal perfusion; format: in vivo, rats
Description: In order to determine intestinal absorption (%) of a naphthoquinone-based compound, a single-pass intestinal perfusion technique was carried out in internal organs of rats, including jejunum, ileum and large intestine. The steady-state intestinal effective permeability (Peff) can be expressed according to the following equation. Peff=[−Qin·ln(Cout/Cin)]/A • Peff: Steady-state intestinal effective permeability (cm/s) • Qin: Perfusion flow rate (0.4 mL/min) • Cin, Cout: Inlet and fluid-transport-corrected outlet solution concentrations • A: Mass transfer surface area within intestinal segment (2πrL), • r, L: Radius and length of intestinal segment The radius (r) and length (L) of the jejunum, ileum and large intestine used in experiments are as follows: (r: jejunum, 0.21 cm; ileum, 0.22 cm; large intestine, 0.23 cm, and L: 10 cm) The steady-state was confirmed by the ratio of the outlet to inlet concentrations (Cout/Cin) versus time. The steady-state is established when the Cout/Cin ratio of the naphthoquinone-based compound is maintained at a constant value (n=3, error bars with respect to S.D.). Residual amounts of the naphthoquinone-based compound in the above three intestinal organs were measured at different time points. The outlet steady-state concentration of the compound under perfusion was calculated. The results thus obtained are given in Table 4 and FIG. 2, respectively. The effective permeability was measured at 4 points of each intestinal tissue.

[3] = orally administered; cited from earlier work

Compound | octanol-solubility higher than water-solubility [1] [fold] | logD ([1]; octanol/phosphate buffer pH 7.4, pH 7.4, average over all amounts and samples, read-out: average partition coefficient) | Partition Coefficient ([1]; 100 μg/mL) | Partition Coefficient ([1]; 200 μg/mL) | Partition Coefficient ([1]; 2000 μg/mL) | Partition Coefficient ([1]; Excess) | average partition coefficient ([1]; pH 7.4) | Peff × 10^−5 ([2]; Duodenum) | Peff × 10^−5 ([2]; Ileum) | Peff × 10^−5 ([2]; Jejunum) | Peff × 10^−5 ([2]; Large intestine) | absorption rate [3] [%]
CC1(C)CCC2=C(O1)c1ccccc1C(=O)C2=O [Compound 1] | 100 | 2.3 | 2.17 and 2.02 and 1.99 | 2.40 and 2.20 and 2.24 | 2.59 and 2.62 and 2.58 | 2.65 and 2.05 and 2.08 | * average partition coefficient: 2.299 (σ = 0.255) | 0.79 ± 0.33 10^−5 cm/s | 5.15 ± 1.49 10^−5 cm/s | 2.37 ± 1.17 10^−5 cm/s | 7.82 ± 0.93 10^−5 cm/s | –
C[C@H]1COC2=C1C(=O)C(=O)c1c2ccc2c1CCCC2(C)C [cryptotanshinone] | – | – | – | – | – | – | – | – | – | – | – | 2.05
